Source: patent US9273028B2, “Heterocyclic tyrosine kinase inhibitors” (Biogen MA Inc., priority 2010, dated 2016)

Columns and labels:
Assay type in all cases: biochemical
[1] = target: T1, Txk (Homo sapiens, UniProt P42681); experiment: Txk kinase selectivity assay (Example 142 procedure, Table 3 modifications); conditions: ATP 100 μM
T1 construct: purchased Carna Bioscience 08-183
T1 sequence (P42681 1-527): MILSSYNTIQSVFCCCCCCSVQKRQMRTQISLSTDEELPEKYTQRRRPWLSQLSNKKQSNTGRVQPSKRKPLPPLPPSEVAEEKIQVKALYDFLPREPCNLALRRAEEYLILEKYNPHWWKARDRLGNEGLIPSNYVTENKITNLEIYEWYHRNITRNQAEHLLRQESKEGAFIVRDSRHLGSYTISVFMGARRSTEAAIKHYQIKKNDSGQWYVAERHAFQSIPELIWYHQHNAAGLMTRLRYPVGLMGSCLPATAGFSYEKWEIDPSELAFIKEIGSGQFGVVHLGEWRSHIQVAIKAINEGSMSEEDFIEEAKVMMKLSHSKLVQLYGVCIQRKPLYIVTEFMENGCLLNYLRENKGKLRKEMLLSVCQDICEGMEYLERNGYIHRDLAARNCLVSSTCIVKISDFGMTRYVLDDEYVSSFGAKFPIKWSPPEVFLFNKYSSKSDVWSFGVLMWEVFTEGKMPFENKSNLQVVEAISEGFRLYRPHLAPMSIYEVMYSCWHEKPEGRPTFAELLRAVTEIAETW
Description: (§1) The purpose of the Tec in vitro assay is to determine compound potency against Tec through the measurement of IC50. Compound inhibition is measured after monitoring the amount of phosphorylation of a fluorescein-labeled polyGT peptide (Invitrogen PV3610) in the presence of active Tec enzyme (Carna Biosciences 08-182), ATP, and inhibitor. The Tec kinase reaction was done in a black 96 well plate (costar 3694). For a typical assay, a 29 μL aliquot of a ATP/peptide master mix (final concentration; ATP 25 μM, polyGT 100 nM) in kinase buffer (10 mM Tris-HCl pH 7.5, 10 mM MgCl2, 200 μM Na3PO4, 5 mM DTT, 0.01% Triton X-100, and 0.2 mg/ml casein) is added to each well. Next, 1 μL of a 3-fold, 50× compound titration in 100% DMSO solvent is added, followed by adding 20 uL of Tec enzyme mix in 1× kinase buffer (with a final concentration of 0.125 nM). The assay is incubated for 15 minutes before being stopped with 5 μl, of a 220 mM EDTA solution. Aliquots (5 μL) of the kinase reaction are transferred to a low volume white 384 well plate (Corning 3674), and 5 μL of a 2× detection buffer (Invitrogen PV3574, with 2 nM Tb-PY20 antibody, Invitrogen PV3552) is added. The plate is covered and incubated for 45 minutes at room temperature. Time resolved fluorescence (TRF) on Molecular Devices M5 (332 nm excitation; 488 nm emission; 518 nm fluorescein emission) is measured.
(§2) Using the procedure described in Example 142, with the modifications shown in Table 3, selectivity for Itk, Txk, and Lck was measured.

[2] = target: T2, Itk (Homo sapiens, UniProt Q08881); experiment: Itk kinase selectivity assay (Example 142 procedure, Table 3 modifications); conditions: ATP 10 μM
T2 construct: purchased Carna Bioscience 08-181
T2 sequence (Q08881 1-620): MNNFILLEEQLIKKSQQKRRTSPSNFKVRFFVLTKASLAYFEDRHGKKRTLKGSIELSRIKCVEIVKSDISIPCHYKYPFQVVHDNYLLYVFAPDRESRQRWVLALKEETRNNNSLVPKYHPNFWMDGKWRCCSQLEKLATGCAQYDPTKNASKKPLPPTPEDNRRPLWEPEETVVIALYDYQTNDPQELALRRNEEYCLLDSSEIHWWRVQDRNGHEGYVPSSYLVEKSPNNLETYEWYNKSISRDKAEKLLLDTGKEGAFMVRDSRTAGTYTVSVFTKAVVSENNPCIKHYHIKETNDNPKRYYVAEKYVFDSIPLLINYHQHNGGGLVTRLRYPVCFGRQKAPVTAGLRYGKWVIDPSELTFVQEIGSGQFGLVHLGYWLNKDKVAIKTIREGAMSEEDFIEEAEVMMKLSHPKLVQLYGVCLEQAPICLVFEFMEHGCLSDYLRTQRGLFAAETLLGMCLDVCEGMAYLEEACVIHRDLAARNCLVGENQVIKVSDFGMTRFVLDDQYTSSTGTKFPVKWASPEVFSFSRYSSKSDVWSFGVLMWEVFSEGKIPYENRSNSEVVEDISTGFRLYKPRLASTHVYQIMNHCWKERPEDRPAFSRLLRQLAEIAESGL
Description: as §1, §2

[3] = target: T3, BTK (Homo sapiens, UniProt Q06187); experiment: In vitro BTK kinase assay (BTK-POLYGAT-LS); conditions: IC50 (10 uM ATP)
T3 construct: purchased Upstate 14-552
How it was run: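 Poly-GAT peptide at 100 nM with 10 μM ATP (final) in pH 7.5 Tris buffer containing MgCl2, DTT, Triton X-100 and 0.2 mg/ml casein.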

[4] = target: T4, Lck (Homo sapiens, UniProt P06239); experiment: Lck kinase selectivity assay (Example 142 procedure, Table 3 modifications); conditions: ATP 5 μM
T4 construct: purchased Carna Bioscience 08-170
Description: as §1, §2

[5] = target: T5, Tec (Homo sapiens, UniProt P42680); experiment: In vitro Tec kinase selectivity assay (Tec-POLYGT-LS); conditions: ATP 25 μM
T5 construct: purchased Carna Biosciences 08-182
T5 sequence (P42680 1-631): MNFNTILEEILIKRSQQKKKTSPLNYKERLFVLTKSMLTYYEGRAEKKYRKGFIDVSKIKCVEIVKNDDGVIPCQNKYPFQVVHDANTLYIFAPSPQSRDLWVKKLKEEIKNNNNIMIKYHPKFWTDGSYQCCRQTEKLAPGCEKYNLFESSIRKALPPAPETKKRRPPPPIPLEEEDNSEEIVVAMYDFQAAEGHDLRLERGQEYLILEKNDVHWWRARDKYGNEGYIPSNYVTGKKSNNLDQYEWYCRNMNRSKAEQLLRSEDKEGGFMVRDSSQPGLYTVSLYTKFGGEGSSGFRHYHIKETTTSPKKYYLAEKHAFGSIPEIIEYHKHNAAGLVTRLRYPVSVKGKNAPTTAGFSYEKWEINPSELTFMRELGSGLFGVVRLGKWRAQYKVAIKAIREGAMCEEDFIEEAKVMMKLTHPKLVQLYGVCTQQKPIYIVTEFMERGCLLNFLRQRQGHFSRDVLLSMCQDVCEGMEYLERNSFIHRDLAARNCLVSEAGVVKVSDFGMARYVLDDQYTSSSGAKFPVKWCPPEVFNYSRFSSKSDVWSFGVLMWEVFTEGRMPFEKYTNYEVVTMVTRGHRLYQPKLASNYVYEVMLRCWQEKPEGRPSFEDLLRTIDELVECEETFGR
Description: In Vitro Tec Kinase Selectivity Assay
as §1

T4 sequence (P06239 whole entry): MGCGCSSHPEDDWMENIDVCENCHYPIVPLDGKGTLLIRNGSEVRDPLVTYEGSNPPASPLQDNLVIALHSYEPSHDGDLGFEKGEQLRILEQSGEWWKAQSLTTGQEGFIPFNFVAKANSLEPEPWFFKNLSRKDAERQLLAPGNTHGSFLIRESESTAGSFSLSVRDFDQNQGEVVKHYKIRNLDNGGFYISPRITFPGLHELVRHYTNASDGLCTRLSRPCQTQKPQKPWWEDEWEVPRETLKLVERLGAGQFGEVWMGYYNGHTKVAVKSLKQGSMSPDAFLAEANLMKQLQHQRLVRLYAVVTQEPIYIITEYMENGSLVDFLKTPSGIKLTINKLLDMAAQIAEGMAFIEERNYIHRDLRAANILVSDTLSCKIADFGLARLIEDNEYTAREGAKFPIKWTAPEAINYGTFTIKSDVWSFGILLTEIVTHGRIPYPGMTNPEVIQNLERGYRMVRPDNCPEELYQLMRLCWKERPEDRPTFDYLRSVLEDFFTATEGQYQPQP
T3 sequence (Q06187 whole entry): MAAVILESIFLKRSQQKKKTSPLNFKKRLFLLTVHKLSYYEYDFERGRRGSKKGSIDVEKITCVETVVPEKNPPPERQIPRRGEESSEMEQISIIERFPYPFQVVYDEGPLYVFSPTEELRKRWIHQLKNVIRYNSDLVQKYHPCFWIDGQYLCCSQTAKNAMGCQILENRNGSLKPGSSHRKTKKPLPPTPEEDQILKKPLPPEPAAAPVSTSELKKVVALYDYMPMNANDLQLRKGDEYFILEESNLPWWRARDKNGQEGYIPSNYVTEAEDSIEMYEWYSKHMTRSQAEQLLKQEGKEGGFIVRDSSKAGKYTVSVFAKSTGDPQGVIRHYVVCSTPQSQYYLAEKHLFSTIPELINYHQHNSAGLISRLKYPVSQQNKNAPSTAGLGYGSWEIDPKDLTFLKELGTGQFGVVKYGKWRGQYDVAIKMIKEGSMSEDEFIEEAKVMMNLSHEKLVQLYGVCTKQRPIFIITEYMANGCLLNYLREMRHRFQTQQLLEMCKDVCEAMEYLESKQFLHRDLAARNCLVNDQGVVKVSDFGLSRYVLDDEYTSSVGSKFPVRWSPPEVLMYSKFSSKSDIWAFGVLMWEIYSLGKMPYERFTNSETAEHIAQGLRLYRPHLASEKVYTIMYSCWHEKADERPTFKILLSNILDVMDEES

IC50 [1] [nM]	IC50 [2] [nM]	IC50 [3] [nM]	IC50 [4] [nM]	IC50 [5] [nM]	SMILES
> 10000	> 10000	< 100	> 10000	> 10000	O=C(CNc1cc(Cl)cc(Cl)c1)N1CC2CC(Nc3ncnc4[nH]ccc34)C1C2 (stereo not shown) [Compound 174]
> 10000	1000 to 10000	< 100	1000 to 10000	100 to 999	O=C(CNc1cc(Cl)cc(Cl)c1)N1CCC[C@@H](Nc2ncnc3[nH]ncc23)C1 [Compound 222]
1000 to 10000	100 to 999	< 100	100 to 999	100 to 999	CCC[C@@H](Nc1cc(F)cc(Cl)c1)C(=O)N1CCC2CCN(c3ncnc4[nH]ccc34)C2C1 (stereo partly shown) [Compound 100]
1000 to 10000	100 to 999	< 100	100 to 999	100 to 999	CC[C@@H](Nc1cc(Cl)cc(Cl)c1)C(=O)N1CCC2CCN(c3ncnc4[nH]ccc34)C2C1 (stereo partly shown) [Compound 99]
1000 to 10000	1000 to 10000	< 100	100 to 999	1000 to 10000	O=C([C@H](Nc1cc(Cl)cc(Cl)c1)C1CC1)N1CCC2CCN(c3ncnc4[nH]ccc34)C2C1 (stereo partly shown) [Compound 176]
> 10000	100 to 999	< 100	100 to 999	100 to 999	O=C(CNc1cc(Cl)cc(Cl)c1)N1Cc2ccccc2C(Nc2ncnc3[nH]ccc23)C1 (stereo not shown) [Compound 96]
1000 to 10000	100 to 999	< 100	100 to 999	100 to 999	O=C(CNc1cc(Cl)cc(Cl)c1)N1CCC2CCN(c3ncnc4[nH]ncc34)C2C1 (stereo not shown) [Compound 192]
1000 to 10000	100 to 999	< 100	1000 to 10000	100 to 999	CC(C)CN(CC(C)C)S(=O)(=O)c1ccccc1NCC(=O)N1CCC[C@@H](Nc2ncnc3[nH]ncc23)C1 [Compound 217]
